The test deals with BDF1 mice, B16 melanoma ip, median survival T/C. Nature of the test: NCI In Vivo Anticancer Drug Screen. Data for tumor model B16 Melanoma (intraperitoneal) in B6D2F1 (BDF1) mice. The conditions noted are these: endpoint: median survival time, higher = longer survival. Put shortly:
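Survival or tumor size is measured after treatment of tumor-bearing mice and normalised to the vehicle-treated control group.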

Where [1] appears, read: dose: 75.0 mg/kg/injection, schedule: Q01DX009 (ip), vehicle: Klucel (hydroxypropylcellulose) (HPC).
[2] abbreviates: dose: 150.0 mg/kg/injection, schedule: Q01DX009 (ip), vehicle: Klucel (hydroxypropylcellulose) (HPC).
The mark [3] stands for this setting: dose: 300.0 mg/kg/injection, schedule: Q01DX009 (ip), vehicle: Klucel (hydroxypropylcellulose) (HPC).
[4] abbreviates: dose: 12.5 mg/kg/injection, schedule: Q01DX009 (ip), vehicle: Klucel (hydroxypropylcellulose) (HPC).
The mark [5] stands for this setting: dose: 25.0 mg/kg/injection, schedule: Q01DX009 (ip), vehicle: Klucel (hydroxypropylcellulose) (HPC).
Where [6] appears, read: dose: 50.0 mg/kg/injection, schedule: Q01DX009 (ip), vehicle: Klucel (hydroxypropylcellulose) (HPC).
Where [7] appears, read: dose: 100.0 mg/kg/injection, schedule: Q01DX009 (ip), vehicle: Klucel (hydroxypropylcellulose) (HPC).
Where [8] appears, read: dose: 200.0 mg/kg/injection, schedule: Q01DX009 (ip), vehicle: Klucel (hydroxypropylcellulose) (HPC).
The mark [9] stands for this setting: dose: 25.0 mg/kg/injection, schedule: Q01DX009 (ip), vehicle: saline with Tween-80.

“And” between values parts separate entries of the source, which are not always exact repeats. Identical values can stand only once. Toxic doses and inconclusive results are not listed. Numbered stars: 1 amine (or outer) side, 2 acyl side, 3 side chain; on linkers, the order of the positions; unused ones are H or OH. Bridge positions count the residues as written; N and C are the ends. Square brackets hold non-standard residues; d marks the D form. Peptide text beside a SMILES is read from it. I, II: the chains in the order shown. ξ: configuration not given here. Actinocin(9to1) = Cc1c2oc3c(C)ccc(C(=O)[*:1])c3nc-2c(C(=O)[*:2])c(N)c1=O; ξPro(4ξ-Me) = CC1CNC(C(=O)O)C1; NMeV = CN[CH](C(=O)O)C(C)C; Sar = CNCC(=O)O

Regarding `CC(=O)OCC1OC(OC(C)=O)C(NC(=O)N(CCCl)N=O)C(OC(C)=O)C1OC(C)=O` (stereo not given), the T/C (dose: 0.75 mg/kg/injection, schedule: Q01DX009 (ip), vehicle: Klucel (hydroxypropylcellulose) (HPC)) was 162 % of control; the T/C (dose: 1.0 mg/kg/injection, schedule: Q01DX009 (ip), vehicle: Klucel (hydroxypropylcellulose) (HPC)) was 152 % of control; the T/C (dose: 1.5 mg/kg/injection, schedule: Q01DX009 (ip), vehicle: Klucel (hydroxypropylcellulose) (HPC)) was 180 % of control; the T/C (dose: 2.0 mg/kg/injection, schedule: Q01DX009 (ip), vehicle: Klucel (hydroxypropylcellulose) (HPC)) is 188 % of control and 287 % of control; the T/C (dose: 3.0 mg/kg/injection, schedule: Q01DX009 (ip), vehicle: Klucel (hydroxypropylcellulose) (HPC)) is 208 % of control; the T/C (dose: 4.0 mg/kg/injection, schedule: Q01DX009 (ip), vehicle: Klucel (hydroxypropylcellulose) (HPC)) was 232 % of control.

As to `Cc1c2oc3c(C)ccc(C(=O)NC4C(=O)NC(C(C)C)C(=O)N5CC(C)CC5C(=O)N(C)CC(=O)N(C)C(C(C)C)C(=O)OC4C)c3nc-2c(C(=O)NC2C(=O)NC(C(C)C)C(=O)N3CC(C)CC3C(=O)N(C)CC(=O)N(C)C(C(C)C)C(=O)OC2C)c(N)c1=O` (stereo not given) (I: TV[ξPro(4ξ-Me)][Sar][NMeV] / II: TV[ξPro(4ξ-Me)][Sar][NMeV]; ester I:1-I:C, II:1-II:C; linker I:N-II:N via Actinocin(9to1); configuration not given here), the T/C reads like this: (dose: 3.24 mg/kg/injection, schedule: Q04DX003 (ip), vehicle: saline + alcohol) 163 % of control; (dose: 3.6 mg/kg/injection, schedule: Q04DX003 (ip), vehicle: saline + alcohol) 123 % of control; (dose: 5.4 mg/kg/injection, schedule: Q04DX003 (ip), vehicle: saline + alcohol) 153 % of control; (dose: 9.0 mg/kg/injection, schedule: Q04DX003 (ip), vehicle: saline + alcohol) 207 % of control; (dose: 15.0 mg/kg/injection, schedule: Q04DX003 (ip), vehicle: saline + alcohol) 188 % of control; (dose: 259.0 micrograms/kg/injection, schedule: Q01DX009 (ip), vehicle: saline + alcohol) 114 % of control. Also, the T/C runs as follows: (dose: 432.0 micrograms/kg/injection, schedule: Q01DX009 (ip), vehicle: saline + alcohol) 122 % of control; (dose: 720.0 micrograms/kg/injection, schedule: Q01DX009 (ip), vehicle: saline + alcohol) 118 % of control; (dose: 1200.0 micrograms/kg/injection, schedule: Q01DX009 (ip), vehicle: saline + alcohol) 123 % of control.

On to `[O-]c1c[n+](C23CCC(c4ccccc42)c2ccccc23)no1`, for which the T/C is, setting by setting: under setting [1], 102 % of control; under setting [2], 100 % of control; under setting [3], 108 % of control.

Regarding `CC(C)c1ccc(C(c2c(O)c3ccccc3oc2=O)c2c(O)c3ccccc3oc2=O)cc1`, the T/C reads like this: under setting [4], 99 % of control; under setting [5], 97 % of control; under setting [6], 107 % of control.

For `NC(N)=Nc1ccc(C(=O)Nc2ccc([N+](=O)[O-])cc2)cc1`, the T/C runs as follows: under setting [6], 98 % of control; under setting [7], 98 % of control; under setting [8], 94 % of control.

As for `COc1ccc(Cl)cc1NC(=O)c1ccccc1C(=O)O`, the T/C is 100 % of control under setting [7] and 94 % of control under setting [8].

Turning to `CCOC(=O)c1ccc(NS(C)(=O)=O)cc1`, the T/C under setting [1] is 94 % of control, the T/C under setting [2] is 102 % of control and the T/C under setting [3] is 108 % of control.

Consider `Cc1cc(/C=C\c2ccc3ccccc3[n+]2C)c(O)c2ncccc12`, for which the T/C is, setting by setting: (dose: 6.25 mg/kg/injection, schedule: Q01DX009 (ip), vehicle: saline with Tween-80) 106 % of control; (dose: 12.5 mg/kg/injection, schedule: Q01DX009 (ip), vehicle: saline with Tween-80) 101 % of control; under setting [9], 101 % of control.

With `O=c1[nH]c(=S)[nH]cc1Oc1ccc(I)cc1`, the T/C is 90 % of control under setting [4], 86 % of control under setting [5] and 91 % of control under setting [6].

Turning to `[Cl][Pt+2][Cl].[NH-]c1ccc([N+](=O)[O-])cc1[NH-]`, the T/C (dose: 5.0 mg/kg/injection, schedule: Q01DX009 (ip), vehicle: saline with Tween-80) was 103 % of control; the T/C (dose: 10.0 mg/kg/injection, schedule: Q01DX009 (ip), vehicle: saline with Tween-80) was 107 % of control; the T/C (dose: 20.0 mg/kg/injection, schedule: Q01DX009 (ip), vehicle: saline with Tween-80) is 107 % of control; the T/C (dose: 40.0 mg/kg/injection, schedule: Q01DX009 (ip), vehicle: saline with Tween-80) is 118 % of control; the T/C (dose: 80.0 mg/kg/injection, schedule: Q01DX009 (ip), vehicle: saline with Tween-80) was 115 % of control.

As for `CNC(=O)Oc1cccn(C(=O)NC)c1=O`, the T/C was 86 % of control (dose: 12.5 mg/kg/injection, schedule: Q01DX009 (ip), vehicle: saline); 91 % of control and 93 % of control (dose: 25.0 mg/kg/injection, schedule: Q01DX009 (ip), vehicle: saline); 87 % of control (dose: 50.0 mg/kg/injection, schedule: Q01DX009 (ip), vehicle: saline); 88 % of control (dose: 75.0 mg/kg/injection, schedule: Q01DX009 (ip), vehicle: saline); 86 % of control (dose: 100.0 mg/kg/injection, schedule: Q01DX009 (ip), vehicle: saline).

Regarding `CCCCCCCCCC(O)CCC` (stereo not given), the T/C under setting [5] was 103 % of control, the T/C under setting [6] is 99 % of control and the T/C under setting [7] is 92 % of control.

With `O=[N+]([O-])c1cccc(S(=O)(=O)N2CCN(S(=O)(=O)c3cccc([N+](=O)[O-])c3)C2)c1`, the T/C reads like this: (dose: 100.0 mg/kg/injection, schedule: Q04DX003 (ip), vehicle: Klucel (hydroxypropylcellulose) (HPC)) 109 % of control; (dose: 200.0 mg/kg/injection, schedule: Q04DX003 (ip), vehicle: Klucel (hydroxypropylcellulose) (HPC)) 102 % of control; (dose: 400.0 mg/kg/injection, schedule: Q04DX003 (ip), vehicle: Klucel (hydroxypropylcellulose) (HPC)) 94 % of control.

Turning to `CC(C)c1ccc(NC(=O)Nc2cccc3ccccc23)cc1`, the T/C runs as follows: under setting [7], 100 % of control; under setting [8], 97 % of control.

For `c1ccc2sc(SSN3CCOCC3)nc2c1`, the T/C was 97 % of control under setting [4] and 94 % of control under setting [6].

On to `CN1C2CCC1CNC2`, for which the T/C is 105 % of control (dose: 100.0 mg/kg/injection, schedule: Q04DX003 (ip), vehicle: saline); 105 % of control (dose: 200.0 mg/kg/injection, schedule: Q04DX003 (ip), vehicle: saline); 100 % of control (dose: 400.0 mg/kg/injection, schedule: Q04DX003 (ip), vehicle: saline).

Regarding `CC(=O)OCC12CCC(C)=CC1OC1C(=O)CC2(C)C12CO2` (stereo not given), the T/C runs as follows: (dose: 0.5 mg/kg/injection, schedule: Q01DX009 (ip), vehicle: saline) 101 % of control; (dose: 1.0 mg/kg/injection, schedule: Q01DX009 (ip), vehicle: saline) 110 % of control; (dose: 2.0 mg/kg/injection, schedule: Q01DX009 (ip), vehicle: saline) 113 % of control; (dose: 4.0 mg/kg/injection, schedule: Q01DX009 (ip), vehicle: saline) 98 % of control.

Consider `CCCCCC[C@H]([C@H](C)O)n1cnc2c(N)ncnc21`, for which the T/C (dose: 6.25 mg/kg/injection, schedule: Q01DX009 (ip), vehicle: Klucel (hydroxypropylcellulose) (HPC)) was 93 % of control; the T/C under setting [4] was 86 % of control; the T/C under setting [5] is 93 % of control and 94 % of control; the T/C under setting [6] is 93 % of control and 106 % of control; the T/C under setting [7] was 104 % of control.

Take `CCCCNC(=O)Oc1ccc(C(=O)OCC)cc1`: the T/C by setting is: under setting [9], 96 % of control; (dose: 50.0 mg/kg/injection, schedule: Q01DX009 (ip), vehicle: saline with Tween-80) 98 % of control; (dose: 100.0 mg/kg/injection, schedule: Q01DX009 (ip), vehicle: saline with Tween-80) 95 % of control.

The values above are taken from PubChem BioAssay AID192 (DTP/NCI, 2004).
